Assay results: patent US20240287048A1, “SUBSTITUTED ACYL SULFONAMIDES FOR TREATING CANCER” (The Broad Institute, Inc., priority 2020, published 2024)

Experiments:
[1] = biological target: T1, KAT6A (Homo sapiens, UniProt Q92794); assay: Kat6a activity assay (TR-FRET, acetylation of biotinylated histone H4 peptide); format: biochemical; conditions: recombinant human His-tagged Kat6a (amino acids 194-810), 60 mins at 22° C., read-out: KAT6A-DPF/HAT domain IC50 [mol/l] (arithmetic mean)
T1 construct: Recombinant human His-tagged Kat6a protein (amino acids 194-810); His; made in house; host or cells: Baculovirus-infected Sf9 insect cells
T1 sequence (Q92794 194-810): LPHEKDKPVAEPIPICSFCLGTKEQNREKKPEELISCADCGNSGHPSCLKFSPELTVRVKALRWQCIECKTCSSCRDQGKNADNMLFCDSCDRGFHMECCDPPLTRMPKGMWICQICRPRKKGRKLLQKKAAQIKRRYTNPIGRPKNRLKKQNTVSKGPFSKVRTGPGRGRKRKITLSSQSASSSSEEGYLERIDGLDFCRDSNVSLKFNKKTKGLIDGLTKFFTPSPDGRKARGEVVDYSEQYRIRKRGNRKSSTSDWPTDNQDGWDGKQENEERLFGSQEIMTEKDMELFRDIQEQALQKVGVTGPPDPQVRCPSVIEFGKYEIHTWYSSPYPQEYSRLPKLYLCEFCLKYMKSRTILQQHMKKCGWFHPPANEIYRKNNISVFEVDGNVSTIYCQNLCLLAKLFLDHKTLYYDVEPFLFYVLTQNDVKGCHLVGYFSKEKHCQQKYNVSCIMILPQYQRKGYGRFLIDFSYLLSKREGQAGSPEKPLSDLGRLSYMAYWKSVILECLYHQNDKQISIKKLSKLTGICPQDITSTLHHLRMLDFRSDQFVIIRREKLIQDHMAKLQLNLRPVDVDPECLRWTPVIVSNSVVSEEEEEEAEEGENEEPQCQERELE
Summary of the method: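 His-tagged human Kat6a (aa 194-810, Sf9-expressed) with compound (0.01-20 μM) for 60 min at 22° C., pH 8 Tris buffer, 220 nM biotinylated H4 peptide (aa 1-24) and 600 nM acetyl-CoA. Acetyl-K8 detected by Eu-antibody/SA-XL665 TR-FRET (665/620 nm ratio); IC50 from 4-parameter fit.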

[2] = system: ESR1 transcription in MVLN cells; assay: Repression of ESR1 transcription, MVLN luciferase reporter assay; format: cell-based; conditions: Homo sapiens, luciferase signal after 24 h, read-out: MVLN reporter assay, IC50[M] (arithmetic mean)
Summary of the method: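 MVLN cells stably carry an ER-responsive vitellogenin A2 element driving luciferase. After 24 h of compound treatment, luciferase was read in lysate as the measure of ERα transcription. Alamar Blue fluorescence (530/590 nm, 2 h) was read first to control for cell loss; samples were run in duplicate.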

Compound: O=C(NS(=O)(=O)c1ccccc1-c1ccccc1)c1cc2ccc(C3CC3)cc2o1 [Example 16, N-([1,1′-biphenyl]-2-sulfonyl)-6-cyclopropyl-1-benzofuran-2-carboxamide]
- IC50 [1]: 62.4 nM
- IC50 [2]: 1.02e-06 M

Compound: CCOc1ccccc1S(=O)(=O)NC(=O)c1cc2ccc(C(C)C)cc2o1 [Example 55, N-(2-Ethoxybenzenesulfonyl)-6-(propan-2-yl)-1-benzofuran-2-carboxamide]
- IC50 [1]: 596 nM
- IC50 [2]: 1.34e-06 M
